Data published in the CheMixHub viscosity set.

Experiment: xn = mol fraction of the nth substance listed

O=S1(=O)CCCC1 + C1CCOC1
viscosity [mPa·s], 101 kPa
Details | 303.15 K | 308.15 K | 313.15 K | 318.15 K | 323.15 K
x2 = 0.268 | 3.74 | 2.9 | 3.41 | 2.93 | 2.68
x2 = 0.541 | 1.53 | 1.46 | 1.34 | 1.26 | 1.18
x2 = 0.772 | 0.77 | 0.74 | 0.72 | 0.7 | 0.68

CC(O)CC(C)(C)O (stereo unspecified) + Clc1ccccc1
viscosity [mPa·s], 101 kPa
Details | x1 = 0.0989 | x1 = 0.1989 | x1 = 0.2931 | x1 = 0.3916 | x1 = 0.4927 | x1 = 0.5867 | x1 = 0.6888 | x1 = 0.7938 | x1 = 0.8999
308.15 K | 0.7755 | 0.9332 | 1.164 | 1.513 | 2.151 | 2.823 | 4.238 | 6.453 | 10.85
318.15 K | 0.6372 | 0.7412 | 0.9438 | 1.242 | 1.814 | 2.278 | 3.416 | 5.241 | 9.228

CO/N=C(\C(=O)N[C@@H]1C(=O)N2C(C(=O)O)=C(C[N+]3(C)CCCC3)CS[C@H]12)c1csc(N)n1.Cl.[Cl-] + O
Details | viscosity [mPa·s]
293.15 K, 101.33 kPa, x1 = 0.002414 | 1.235

Nc1ccccc1Cl + CCOCCO
303.15 K, 101 kPa
Details | viscosity [mPa·s]
x1 = 0.0966 | 2.088
x1 = 0.1696 | 2.266
x1 = 0.2725 | 2.507
x1 = 0.3613 | 2.709
x1 = 0.4791 | 2.967
x1 = 0.5648 | 3.147
x1 = 0.68 | 3.372
x1 = 0.7804 | 3.544
x1 = 0.8884 | 3.696

CCCCOCCOCCO + O=C1CCCN1
298.15 K, 101 kPa
Details | viscosity [mPa·s]
x1 = 0.0024 | 14.13
x1 = 0.0056 | 14.02
x1 = 0.0086 | 13.96
x1 = 0.012 | 13.86
x1 = 0.0205 | 13.67
x1 = 0.0421 | 13.08
x1 = 0.0638 | 12.61
x1 = 0.0865 | 12.19
x1 = 0.1132 | 11.69
x1 = 0.1508 | 11.11
x1 = 0.1869 | 10.55
x1 = 0.2192 | 10.19
x1 = 0.2979 | 9.265
x1 = 0.3786 | 8.558
x1 = 0.3996 | 8.385
x1 = 0.4122 | 8.298
x1 = 0.4764 | 7.823
x1 = 0.5469 | 7.347
x1 = 0.6024 | 7.035
x1 = 0.6618 | 6.715
x1 = 0.7147 | 6.434
x1 = 0.7823 | 6.121
x1 = 0.8345 | 5.879
x1 = 0.8792 | 5.707
x1 = 0.9066 | 5.597
x1 = 0.9407 | 5.469
x1 = 0.9748 | 5.264
x2 = 0.0063 | 5.156

O=S1(=O)CCCC1 + CCOC(C)=O
303.15 K, 101 kPa
Details | viscosity [mPa·s]
x1 = 0.8548 | 5.285
x1 = 0.9799 | 9.205

O=S1(=O)CCCC1 + Cc1ccccc1
viscosity [mPa·s], 101.3 kPa
Details | x2 = 0.1267 | x2 = 0.2458 | x2 = 0.3587 | x2 = 0.4651 | x2 = 0.5662 | x2 = 0.6617 | x2 = 0.7527 | x2 = 0.8392 | x2 = 0.9206
303.15 K | 6.052 | 3.95 | 2.732 | 2.029 | 1.557 | 1.173 | 0.9289 | 0.7548 | 0.6265
323.15 K | 3.906 | 2.662 | 1.919 | 1.458 | 1.151 | 0.8828 | 0.7151 | 0.5893 | 0.4967

CCC(C)O (stereo unspecified) + CC#N
Details | viscosity [mPa·s]
293.15 K, 101 kPa, x2 = 0.1644 | 1.655

Cc1cccc(C)c1 + CCCCCCCCCCO
viscosity [mPa·s], 101 kPa
Details | 298.15 K | 308.15 K
x1 = 0.0627 | 9.938 | 6.871
x1 = 0.1424 | 7.856 | 5.489
x1 = 0.2052 | 6.481 | 4.577
x1 = 0.2618 | 5.435 | 3.88
x1 = 0.3217 | 4.497 | 3.243
x1 = 0.3934 | 3.563 | 2.622
x1 = 0.4989 | 2.534 | 1.912
x1 = 0.5581 | 2.095 | 1.617
x1 = 0.6343 | 1.645 | 1.299
x1 = 0.7131 | 1.292 | 1.045
x1 = 0.7991 | 1.001 | 0.835
x1 = 0.8465 | 0.874 | 0.742
x1 = 0.8964 | 0.762 | 0.662
x1 = 0.9421 | 0.674 | 0.599

CCCCOCCOCCO + ClC(Cl)Cl
298.15 K, 101.33 kPa
Details | viscosity [mPa·s]
x1 = 0.0036 | 0.538
x1 = 0.013 | 0.559
x1 = 0.0198 | 0.572
x1 = 0.0347 | 0.607
x1 = 0.0576 | 0.674
x1 = 0.0854 | 0.755
x1 = 0.1232 | 0.882
x1 = 0.1802 | 1.118
x1 = 0.2156 | 1.281
x1 = 0.2883 | 1.65
x1 = 0.3513 | 2.01
x1 = 0.427 | 2.46
x1 = 0.486 | 2.828
x1 = 0.539 | 3.148
x1 = 0.6168 | 3.591
x1 = 0.6945 | 4.021
x1 = 0.7358 | 4.19
x1 = 0.7844 | 4.415
x1 = 0.8159 | 4.545
x1 = 0.859 | 4.758
x1 = 0.9079 | 4.913
x1 = 0.94 | 5.021
x1 = 0.9514 | 5.04
x1 = 0.9582 | 5.061
x1 = 0.9656 | 5.083
x2 = 0.0054 | 5.185

O=S1(=O)CCCC1 + c1ccccc1
viscosity [mPa·s]
Details | 303.15 K | 313.15 K | 323.15 K
101 kPa, x1 = 0.0944 | 0.7133 | 0.6194 | 0.5441
101 kPa, x1 = 0.1855 | 0.8992 | 0.7737 | 0.6751
101 kPa, x1 = 0.2522 | 1.074 | 0.9112 | 0.7919
101 kPa, x1 = 0.2849 | 1.162 | 0.9889 | 0.8556
101 kPa, x1 = 0.3829 | 1.504 | 1.267 | 1.085
101 kPa, x1 = 0.4835 | 1.976 | 1.648 | 1.396
101 kPa, x1 = 0.5905 | 2.694 | 2.202 | 1.855
101 kPa, x1 = 0.6841 | 3.563 | 2.879 | 2.388
101 kPa, x1 = 0.7917 | 5.014 | 3.996 | 3.267
101 kPa, x1 = 0.8956 | 7.129 | 5.619 | 4.505
101.3 kPa, x2 = 0.1417 | 6.075 | – | 3.928
101.3 kPa, x2 = 0.2777 | 4.003 | – | 2.676
101.3 kPa, x2 = 0.3972 | 2.826 | – | 1.95
101.3 kPa, x2 = 0.5062 | 2.066 | – | 1.468
101.3 kPa, x2 = 0.6063 | 1.571 | – | 1.137
101.3 kPa, x2 = 0.6976 | 1.2 | – | 0.8791
101.3 kPa, x2 = 0.7823 | 0.9625 | – | 0.717
101.3 kPa, x2 = 0.8602 | 0.786 | – | 0.5933
101.3 kPa, x2 = 0.9327 | 0.652 | – | 0.5029

CCCCOCCOCCO + ClC(Cl)(Cl)Cl
298.15 K, 101.33 kPa
Details | viscosity [mPa·s]
x1 = 0.02 | 0.948
x1 = 0.038 | 0.989
x1 = 0.0629 | 1.05
x1 = 0.0892 | 1.14
x1 = 0.1363 | 1.29
x1 = 0.18 | 1.442
x1 = 0.2249 | 1.63
x1 = 0.2644 | 1.796
x1 = 0.3052 | 1.974
x1 = 0.4307 | 2.594
x1 = 0.4809 | 2.841
x1 = 0.5267 | 3.065
x1 = 0.5721 | 3.292
x1 = 0.6126 | 3.489
x1 = 0.6679 | 3.769
x1 = 0.7225 | 4.032
x1 = 0.7669 | 4.227
x1 = 0.8132 | 4.438
x1 = 0.8674 | 4.688
x1 = 0.9149 | 4.885
x1 = 0.9436 | 5.01
x1 = 0.9724 | 5.074
